Assays:
[1] = system: Tp 410 N neuroblastoma cells; assay: 3H-thymidine assay; assay type: cell-based; settings: Homo sapiens, Neuroblastoma cell
LNCap cells [2] = assay: cell growth in combination with testosterone; assay type: cell-based, human
EJ cells = assay: growth inhibition of bladder carcinoma cells (Table 1); assay type: cell-based, human; settings: 200 μmol/ml, after 10 days
[3] = system: GV-1 prostate carcinoma cells; assay: 3H-thymidine assay; assay type: cell-based
Daudi leukemic cells = assay: 3H-thymidine assay; assay type: cell-based; settings: Homo sapiens
[4] = system: Z-R-75-1 breast cancer cells; assay: 3H-thymidine assay; assay type: cell-based; settings: Homo sapiens, ZR-75-1
[5] = system: brain-tumor cells (glioblastoma cells); assay: growth inhibition of brain-tumor cells; assay type: cell-based; settings: Tables 1 to 3
A 431 cells = assay: growth curve, epidermoidal carcinoma cells; assay type: cell-based, human; settings: for Cell count: 10 μM/ml
Experimental: (§1) The neuroblastoma cell line and the three glioblastoma cell lines were cultivated in Ham's F10 medium enriched with 10% fetal calf serum (FCS) and the usual quantity of penicillin, streptomycin (Pen/Strep) and glutamine. The epidermoidal cell line was cultivated in modified Eagle's Medium (MEM), likewise enriched with 10% (FCS) and the usual quantity of glutamine and Pen/Strep.
(§2) In each case 5×10^4 cells were plated out in T25 bottles, the untreated cells being incubated in analogous conditions as control. The cell count was microscopically determined after 3, 5, 7, 10 and 12 days.

LNCap cells [6] = assay: growth inhibition of prostatic carcinoma cells (Table 1); assay type: cell-based, human; settings: 250 μmol/ml, after 10 days
DU-145 cells = assay: cell growth, combination with TNF; assay type: cell-based; settings: 7-OH-1,2-BP 500 μM/ml; TNF 1 nM/ml; combination 500 μM/1 nM; 4 days; 3×10^4 cells/well; control 51.86 + 3.06
Source text: (§4) Various cell lines (DU-145, PC-3 and LNCaP) from prostate carcinomas were used.
(§5) Initial cell count: 3×10^4 cells/well; exposure period: DU-145, PC-3: 4 days; LNCaP: 6 days

[7] = system: Onco Mouse mammary glands-neoplasms; assay: chemoprevention in transgenic mice (mammary glands-neoplasms); assay type: in vivo; settings: 200 μM/ml in drinking water
Experimental: The chemopreventive properties of 7-OH-1,2-BP were tested on transgenic mice of the Onco Mouse™ type (mammary glands-neoplasms): […]

[8] = system: erythroleukemic cells (K 562); assay: photometric cell count / mitochondrial activity; assay type: cell-based; settings: 20 hours, increasing concentrations
Experimental: (§3) Subsequently the cell count was photometrically determined according to Alley M. C. et al., Cancer Research 48, 589-601 (1988). In the process, a colorant is added to the cells that have been mixed with medium, the colorant being so converted by cells with mitochondrial activity that a photometric determination of the cell count is possible.

bladder tumor cells = assay: photometric cell count / mitochondrial activity; assay type: cell-based; settings: 20 hours, increasing concentrations
Experimental: as §3

A-375 melanoma cells = assay: 3H-thymidine assay; assay type: cell-based; settings: Homo sapiens, A-375
LNCap cells [9] = assay: cell growth, combination with TNF; assay type: cell-based, human; settings: 7-OH-1,2-BP 500 μM/ml; TNF 1 nM/ml; combination 500 μM/1 nM; 6 days; 3×10^4 cells/well; control 61.40 + 3.70
Source text: as §4, §5

U 178 MG cells = assay: growth curve, glioblastoma cells; assay type: cell-based, human; settings: for Cell count: 25 μM/ml
Experimental: as §1, §2

TP 242 MG cells = assay: growth curve, glioblastoma cells; assay type: cell-based, human; settings: for Cell count: 25 μM/ml
Experimental: as §1, §2

TP 336 MG cells = assay: growth curve, glioblastoma cells; assay type: cell-based, human; settings: for Cell count: 10 μM/ml
Experimental: as §1, §2

[10] = Table 4, read-out: active substance concentration at which 3H-thymidine insertion was 50% inhibited
[11] = 1 μM/ml, read-out: 3H-thymidine tracer (%) of control
[12] = 2 μM/ml, read-out: 3H-thymidine tracer (%) of control
[13] = 4 μM/ml, read-out: 3H-thymidine tracer (%) of control
[14] = 8 μM/ml, read-out: 3H-thymidine tracer (%) of control
[15] = 16 μM/ml, read-out: 3H-thymidine tracer (%) of control
[16] = 25 μM/ml, read-out: 3H-thymidine tracer (%) of control
[17] = 50 μM/ml, read-out: 3H-thymidine tracer (%) of control
[18] = 100 μM/ml, read-out: 3H-thymidine tracer (%) of control
[19] = 250 μM/ml, read-out: 3H-thymidine tracer (%) of control
[20] = 500 μM/ml, read-out: 3H-thymidine tracer (%) of control
[21] = Table 4, *: maximum usable dosage, no 50% inhibition, read-out: active substance concentration at which 3H-thymidine insertion was 50% inhibited
[22] = Homo sapiens, 288 h, 25 μM/ml (Table 2), read-out: % growth inhibition compared with control after 12 days

`O=c1ccc2ccc(O)cc2o1` [7-OH-1,2-BP, 7-hydroxy-1,2-benzopyrone] showed an activity at 1 µM ([1]; 1 μM/ml, read-out: 3H-thymidine insertion (%) of control) of 96%, an activity at 2 µM ([1]; 2 μM/ml, read-out: 3H-thymidine insertion (%) of control) of 91% and an activity at 4 µM ([1]; 4 μM/ml, read-out: 3H-thymidine insertion (%) of control) of 80%. It also gave an activity at 8 µM ([1]; 8 μM/ml, read-out: 3H-thymidine insertion (%) of control) of 73%, an activity at 16 µM ([1]; 16 μM/ml, read-out: 3H-thymidine insertion (%) of control) of 67% and an activity at 25 µM ([1]; 25 μM/ml, read-out: 3H-thymidine insertion (%) of control) of 50%. The activity at 50 µM ([1]; 50 μM/ml, read-out: 3H-thymidine insertion (%) of control) was 48%, the activity at 100 µM ([1]; 100 μM/ml, read-out: 3H-thymidine insertion (%) of control) was 42% and the activity at 250 µM ([1]; 250 μM/ml, read-out: 3H-thymidine insertion (%) of control) was 36%. For the same compound, the activity at 500 µM ([1]; 500 μM/ml, read-out: 3H-thymidine insertion (%) of control) was 21%, the IC50 [1, 10] was 25 µM and the “inhibition of cell growth” value (LNCap cells [2]; 500 μM 7-OH-1,2-BP/ml medium combined with 20 nM testosterone) was “virtually complete inhibition of cell growth”. For the same compound, the “increase of growth inhibition by additional hormone therapy” value (LNCap cells [2]; for example testosterone) was “can be increased by additional hormone therapy”, the “% Growth inhibition compared with control” value (EJ cells) was 26% and the activity at 1 µM [3, 11] was 100%. For the same compound, the activity at 2 µM [3, 12] was 89%, the activity at 4 µM [3, 13] was 83% and the activity at 8 µM [3, 14] was 75%. It also gave an activity at 16 µM [3, 15] of 69%, an activity at 25 µM [3, 16] of 63% and an activity at 50 µM [3, 17] of 51%. It also gave an activity at 100 µM [3, 18] of 39%, an activity at 250 µM [3, 19] of 36% and an activity at 500 µM [3, 20] of 27%. For the same compound, the IC50 [3, 10] was 75 µM, the activity at 1 µM (Daudi leukemic cells; [11]) was 98% and the activity at 2 µM (Daudi leukemic cells; [12]) was 89%. It also gave an activity at 4 µM (Daudi leukemic cells; [13]) of 82%, an activity at 8 µM (Daudi leukemic cells; [14]) of 76% and an activity at 16 µM (Daudi leukemic cells; [15]) of 63%. It also gave an activity at 25 µM (Daudi leukemic cells; [16]) of 54%, an activity at 50 µM (Daudi leukemic cells; [17]) of 49% and an activity at 100 µM (Daudi leukemic cells; [18]) of 38%. For the same compound, the activity at 250 µM (Daudi leukemic cells; [19]) was 35%, the activity at 500 µM (Daudi leukemic cells; [20]) was 28% and the IC50 (Daudi leukemic cells; [10]) was 50 µM. It also gave an activity at 1 µM [4, 11] of 96%, an activity at 2 µM [4, 12] of 91% and an activity at 4 µM [4, 13] of 82%. The activity at 8 µM [4, 14] was 73%, the activity at 16 µM [4, 15] was 65% and the activity at 25 µM [4, 16] was 55%. The activity at 50 µM [4, 17] was 49%, the activity at 100 µM [4, 18] was 43% and the activity at 250 µM [4, 19] was 39%. The activity at 500 µM [4, 20] was 27%, the IC50 [4, 21] was 50 µM and the “growth-inhibiting effect on brain-tumor cells” value [5] was “strong growth-inhibiting effect on brain-tumor cells”. The Cell count (A 431 cells; after 3 days, control 6) was 4 × 10^4, the Cell count (A 431 cells; after 5 days, control 24) was 10 × 10^4 and the Cell count (A 431 cells; after 7 days, control 45) was 3 × 10^4. The Cell count (A 431 cells; after 10 days, control 56) was 12 × 10^4, the Cell count (A 431 cells; after 12 days, control 87) was 21 × 10^4 and the inhibition at 10 µM (A 431 cells; Homo sapiens, A-431, 288 h, 10 μM/ml (Table 2), read-out: % growth inhibition compared with control after 12 days) was 76%. The “% Growth inhibition compared with control” value (LNCap cells [6]) was 66%, the Cell growth (DU-145 cells) was 38.30 + 2.92 and the “Tumor incidence (number of mice)” value ([7]; without substance 9/28) was 3/38. For the same compound, the Tumor incidence % ([7]; without substance 32) was 8%, the “inhibition of mitochondrial activity” value [8] was “a dosage-related inhibition of the mitochondrial activity occurs” and the “inhibition of mitochondrial activity” value (bladder tumor cells) was “a dosage-related inhibition of the mitochondrial activity occurs”. For the same compound, the activity at 1 µM (A-375 melanoma cells; [11]) was 100%, the activity at 2 µM (A-375 melanoma cells; [12]) was 92% and the activity at 4 µM (A-375 melanoma cells; [13]) was 86%. It also gave an activity at 8 µM (A-375 melanoma cells; [14]) of 81%, an activity at 16 µM (A-375 melanoma cells; [15]) of 72% and an activity at 25 µM (A-375 melanoma cells; [16]) of 64%. For the same compound, the activity at 50 µM (A-375 melanoma cells; [17]) was 53%, the activity at 100 µM (A-375 melanoma cells; [18]) was 49% and the activity at 250 µM (A-375 melanoma cells; [19]) was 47%. The activity at 500 µM (A-375 melanoma cells; [20]) was 44%, the IC50 (A-375 melanoma cells; [21]) was 100 µM and the Cell growth (LNCap cells [9]) was 11.0 + 1.10. For the same compound, the Cell count (U 178 MG cells; after 3 days, control 23) was 15 × 10^4, the Cell count (U 178 MG cells; after 5 days, control 57) was 13 × 10^4 and the Cell count (U 178 MG cells; after 7 days, control 84) was 26 × 10^4. For the same compound, the inhibition at 25 µM (U 178 MG cells; [22]) was 74%, the Cell count (TP 242 MG cells; after 3 days, control 10) was 4 × 10^4 and the Cell count (TP 242 MG cells; after 5 days, control 15) was 6 × 10^4. The Cell count (TP 242 MG cells; after 7 days, control 23) was 8 × 10^4, the Cell count (TP 242 MG cells; after 10 days, control 49) was 10 × 10^4 and the Cell count (TP 242 MG cells; after 12 days, control 57) was 12 × 10^4. The inhibition at 25 µM (TP 242 MG cells; [22]) was 79%, the Cell count (TP 336 MG cells; after 3 days, control 13) was 7 × 10^4 and the Cell count (TP 336 MG cells; after 5 days, control 25) was 11 × 10^4. The Cell count (TP 336 MG cells; after 7 days, control 39) was 22 × 10^4, the Cell count (TP 336 MG cells; after 10 days, control 34) was 18 × 10^4 and the Cell count (TP 336 MG cells; after 12 days, control 45) was 18 × 10^4. The inhibition at 10 µM (TP 336 MG cells; Homo sapiens, 288 h, 10 μM/ml (Table 2), read-out: % growth inhibition compared with control after 12 days) was 60%.

Reference: US5525626A (priority 1989, dated 1996)
